Where no end group is shown, it is not given here.
Tested on: HCT116 cells
Test: Flow cytometry binding of biotinylated pHCT74 peptide
Parameters: species or system human
Description: We propose the use of biotinylated pHCT74 peptide and a chemical cross-linker, DTSSP, to identify the unknown target protein on the plasma membrane of HCT116 cells. A biotin molecule was conjugated to the C terminus of synthetic pHCT74 peptide. The binding characteristics of biotinylated pHCT74 peptide to HCT116 cells were evaluated by flow cytometry for analyzing the concentration dependency of the binding (FIG. 4B). […] The membrane proteins of HCT116 cells were bound with biotin-pHCT74 peptide, cross-linked by DTSSP; followed by SDS-PAGE separation and LC/MS/MS analysis. A sharp bands was detected by silver staining (FIG. 4C), and subsequently analyzed by LC/MS/MS after tryptic digestion. Twelve tryptic peptides were identified as alpha-enolase (ENO1) fragments by search algorithms based on MASCOT software. Coverage of the identified peptides was 57% of the alpha-enolase sequence and the probability score was 424 (FIG. 4D).

biotinylated pHCT74 peptide: synthetic pHCT74 peptide with a biotin molecule conjugated to the C terminus (SSMDIVLRAPLMGGG-biotin)
cell binding activity after C-terminal biotin addition: did not affect its cell binding activity
